This is an account of results in PubChem BioAssay AID2068 (Sanford-Burnham Center for Chemical Genomics, 2009).

pIC50: −log10 of the molar value.

The target in this assay is Tyrosine-protein phosphatase non-receptor type 7 (Homo sapiens) (UniProt P35236). The assay can be described thus: redox-active compounds inhibiting HePTP phosphatase – biochemical, fluorescence, mechanism study (AID 2068). The following applies: recombinant HePTP, fluorescent phosphatase assay, redox-state modulation.
Sequence of Tyrosine-protein phosphatase non-receptor type 7 (Homo sapiens) (P35236 whole entry, looked up): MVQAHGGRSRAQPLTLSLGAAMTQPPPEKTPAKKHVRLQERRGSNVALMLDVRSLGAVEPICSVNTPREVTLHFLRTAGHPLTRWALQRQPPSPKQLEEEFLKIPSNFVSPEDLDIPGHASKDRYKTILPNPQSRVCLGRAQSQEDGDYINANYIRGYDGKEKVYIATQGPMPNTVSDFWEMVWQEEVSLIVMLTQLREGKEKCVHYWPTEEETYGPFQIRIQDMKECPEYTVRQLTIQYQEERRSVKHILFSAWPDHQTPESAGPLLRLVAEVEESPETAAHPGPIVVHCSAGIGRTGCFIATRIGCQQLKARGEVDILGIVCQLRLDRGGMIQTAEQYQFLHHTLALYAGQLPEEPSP

For `O=C(O)CSc1cc(C(=O)c2ccccc2O)cn2c(=O)c3c(-c4ccccc4)csc3nc12`, the pIC50 was 5.76.
